One experiment has as its target T1, PR-B (Homo sapiens, UniProt P06401).
T1 construct: expressed in transfected cells
T1 sequence (P06401 1-933): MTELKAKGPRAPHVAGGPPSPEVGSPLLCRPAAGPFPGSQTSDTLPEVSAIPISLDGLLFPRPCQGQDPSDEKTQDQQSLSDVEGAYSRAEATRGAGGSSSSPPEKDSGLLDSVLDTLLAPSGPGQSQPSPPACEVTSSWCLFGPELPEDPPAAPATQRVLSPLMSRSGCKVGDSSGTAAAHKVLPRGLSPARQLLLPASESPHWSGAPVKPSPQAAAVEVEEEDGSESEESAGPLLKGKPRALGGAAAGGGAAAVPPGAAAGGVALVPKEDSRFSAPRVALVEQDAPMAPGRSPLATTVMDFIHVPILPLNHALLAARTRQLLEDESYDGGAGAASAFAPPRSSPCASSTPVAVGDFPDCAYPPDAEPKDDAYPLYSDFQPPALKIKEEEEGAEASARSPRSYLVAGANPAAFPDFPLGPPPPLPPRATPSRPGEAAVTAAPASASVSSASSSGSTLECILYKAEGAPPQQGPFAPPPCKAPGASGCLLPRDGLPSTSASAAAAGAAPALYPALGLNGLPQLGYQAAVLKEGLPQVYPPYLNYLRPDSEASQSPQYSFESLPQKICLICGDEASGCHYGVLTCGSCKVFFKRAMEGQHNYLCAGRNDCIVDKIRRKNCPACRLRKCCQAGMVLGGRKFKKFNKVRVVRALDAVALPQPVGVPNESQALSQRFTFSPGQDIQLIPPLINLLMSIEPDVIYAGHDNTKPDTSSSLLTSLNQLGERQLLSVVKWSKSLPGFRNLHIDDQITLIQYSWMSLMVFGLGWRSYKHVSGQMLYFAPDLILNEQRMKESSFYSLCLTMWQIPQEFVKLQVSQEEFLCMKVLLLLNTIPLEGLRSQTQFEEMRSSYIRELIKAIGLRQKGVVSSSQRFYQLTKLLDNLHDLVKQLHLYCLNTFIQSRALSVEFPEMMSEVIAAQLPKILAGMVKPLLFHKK
The experiment is described as follows: Transactivation test on antagonistic activity on PR-B. Format: cell-based.
Conditions: not given
The method, then:
The transactivation assay is carried out as described in WO 02/054064.
`Cc1ccc(C#CC(O)(C(=O)Nc2ccc(C#N)c(Cl)c2)C2CCCCC2)cc1` (racemic) [Example 4, rac-N-(3-Chloro-4-cyanophenyl)-2-hydroxy-2-cyclohexyl-2-(4-methylphenyl)-ethynylacetamide] came in with an IC50 of 2 nM.

`N#Cc1ccc(NC(=O)C(O)(C#Cc2ccc(O)cc2)C2CCCCC2)cc1Cl` (racemic) [Example 10, rac-N-(3-Chloro-4-cyanophenyl)-2-hydroxy-2-cyclohexyl-2-(4-hydroxyphenyl)-ethynylacetamide] gave an IC50 of 7 nM.

`N#Cc1ccc(NC(=O)C(O)(C#Cc2ccc(C(=O)O)cc2)C2CCCCC2)cc1Cl` (racemic) [Example 12, rac-N-(3-Chloro-4-cyanophenyl)-2-hydroxy-2-cyclohexyl-2-(4-carboxyphenyl)-ethynylacetamide] gave a concentration for half-maximal inhibition (IC50) of 1.8 nM.

The experiment is the same for the next values; noted with them: antagonistic activity on PR-B; read-out: IC50.
As for `COc1ccc(CC(O)(C(=O)Nc2ccc(C#N)c(Cl)c2)C2CCCCC2)cc1` (racemic) [Example 16, rac-N-(3-Chloro-4-cyanophenyl)-2-cyclohexyl-2-hydroxy-3-(4-methoxyphenyl)-propionamide], the IC50 stood at 17 nM.

For the compound `N#Cc1ccc(NC(=O)C(O)(Cc2ccccc2)C2CCCC2)cc1Cl` (racemic) [Example 32, rac-N-(3-Chloro-4-cyanophenyl)-2-cyclopentyl-2-hydroxy-3-phenylpropionamide], the IC50 turned out to be 27 nM.

Take `N#Cc1ccc(NC(=O)C(O)(Cc2ccccc2)C2CCCC2)cc1C(F)(F)F` (racemic) [Example 39, rac-N-(4-Cyano-3-trifluoromethylphenyl)-2-cyclopentyl-2-hydroxy-3-phenyl-propionamide]: the half-inhibitory concentration (IC50) worked out at 17 nM.

On to `N#Cc1ccc(NC(=O)C(O)(C#Cc2ccccc2)C2CCCCC2)cc1Cl` (single isomer, unassigned; (-)) [Example 2b, (−)-N-(3-chloro-4-cyanophenyl)-2-hydroxy-2-cyclohexyl-2-phenylethynylacetamide], for which the IC50 is 1.8 nM.

As for “rac-N-(3-Chloro-4-cyanophenyl)-2-hydroxy-2-cyclohexyl-2-(4-fluorophenyl)-ethynylacetamide [Example 6]”, the half-inhibitory concentration (IC50) came out at 5 nM.

As for “rac-N-(3-Chloro-4-cyanophenyl)-2-hydroxy-2-cyclohexyl-2-(4-trifluoromethyl-phenyl)ethynylacetamide [Example 5]”, the IC50 worked out at 7.9 nM.

One may read the IC50 as the point on the concentration scale where inhibition reaches its midpoint.

These data come from US20090270381A1, “Non-steroidal progesterone receptor modulators” (priority 2007, published 2009).
